Assay results as given in patent publication US10973810B2, “Methods for the treatment of neurological disorders” (Yumanity Therapeutics, Inc., priority 2017, dated 2021).

Biological target: T1, human SCD5 (Homo sapiens, UniProt Q86SK9)
T1 construct: host or cells: S. cerevisiae ole1Δ strain (W303 pdr1Δ pdr3Δ background), plasmid pRS316 with TDH3 promoter and CYC1 terminator
T1 sequence (Q86SK9 1-330): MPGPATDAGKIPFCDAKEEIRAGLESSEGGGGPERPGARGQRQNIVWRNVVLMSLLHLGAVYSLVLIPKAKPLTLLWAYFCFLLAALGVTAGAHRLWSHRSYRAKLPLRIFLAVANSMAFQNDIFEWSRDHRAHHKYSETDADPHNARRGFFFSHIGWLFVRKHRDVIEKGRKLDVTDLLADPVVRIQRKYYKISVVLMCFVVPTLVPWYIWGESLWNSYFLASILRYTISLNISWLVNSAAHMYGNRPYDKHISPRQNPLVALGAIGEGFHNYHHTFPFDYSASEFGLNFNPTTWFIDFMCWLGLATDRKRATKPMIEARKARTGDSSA
Assay: Growth of humanized yeast surviving solely on human SCD5
Type: cell-based
Settings: growth inhibition
Description: To generate yeast strains expressing SCD1 or SCD5 as the sole desaturase, the human SCD1 and SCD5 genes were cloned from cDNAs (Harvard PlasmID database Clone ID HsCD00340237 for SCD1 and HsCD00342695 for SCD5) into yeast plasmid pRS316 (ATCC 77145) between the yeast TDH3 promoter and the CYC1 terminator. The coding sequence of yeast OLE1 was also cloned into this plasmid). These clones were then transformed into the ole1d strain and plated on CSM-Ura media (CSM lacking uracil) with 2% glucose (w/v) and independent colonies were isolated and amplified.
For experiments using a plasmid-borne copy of Ole1, SCD1, or SCD5 (FIGS. 3B, 6, and 7), media lacking uracil (SX-Ura, where X is glucose, raffinose, or galactose), was used for all steps of the compound profiling protocol to ensure its maintenance throughout the assay.
After yeast delivery, assay plates were incubated under humidified conditions at 30° C. for 24 to 40 h. ApoE4 rescue experiments were stopped at 24 h, aSyn experiments at 40 h, Ole1 at 24 h, and SCD1/SCD5 at 40 h. The growth of yeast was monitored by reading the OD600 of each well using a microplate reader (Perkin Elmer EnVision™). For model rescue experiments, raw data were processed by background subtracting and calculating a fold-change relative to DMSO control [(EXP-0.035)/(DMSO-0.035)—where 0.035 is the OD600 contributed by an empty well containing 30 μL of media alone]. For growth inhibition of wild-type cells, raw data were processed by background subtracting and converting values to a percent of the nontreated condition for that strain [(EXP-0.035)/(DMSO-0.035)×100%].

SMILES: Cc1nnc(-c2ccc(N3CCC(Oc4cc(F)ccc4Cl)CC3)nn2)o1 [CAY10566]
- half-maximal inhibitory concentration (IC50), SCD5 humanized strain: low nanomolar
